The values below come from article PMC9138090, “Study on the Neuroprotective, Radical-Scavenging and MAO-B Inhibiting Properties of New Benzimidazole Arylhydrazones as Potential Multi-Target Drugs for the Treatment of Parkinson’s Disease” (Antioxidants, 2022).

A short description of data set [1]: MTT cytotoxicity on SH-SY5Y cells. Format: cell-based, human. The following applies: human, SH-SY5Y neuroblastoma cells, MTT test, 24 h incubation; read-out: IC50, in vitro cytotoxicity on SH-SY5Y cells. Here is the method: (§1) Human neuroblastoma cell line SH-SY5Y was obtained from the European Collection of Cell Cultures (ECACC, Salisbury, UK). The cells were maintained in 75 cm^2 flasks at 37 °C in a humidified atmosphere with 5% CO2 and cultured in RPMI 1640 medium, supplemented with 10% fetal bovine serum and 2 mM L-glutamine.
(§2) MTT (Sigma-Aldrich Chemie GmbH, Schnelldorf, Germany) assay is based on interaction between tetrazolium dye 3-(4,5-dimethylthiazol-2-yl)-2,5-diphenyltetrazolium bromide and succinic dehydrogenase in the living cells’ mitochondria. In this reaction, the formed purple formazan crystals indicate the presence of viable cells. SH-SY5Y cells were seeded in 96-well microplates at a density 2.5 × 10^4 cells/well and allowed to attach to the well surface at 37 °C in a humidified atmosphere with 5% CO2 (24 h). Different concentrations of compounds ([…]) were added to cells and incubated for 24 h. For each concentration, a set of at least 8 wells were used. After the treatment, the solution in each well was substituted with MTT (3-(4,5-dimethylthiazol-2-yl)-2,5-diphenyltetrazolium bromide) solution (0.5 mg/mL in culture medium). The microplates were further incubated for 3 h at 37 °C and the obtained formazan crystals were dissolved by 100 µL/well of DMSO. The absorbance was measured in a multiplate reader Synergy 2 (BioTek Instruments, Inc, Highland Park, Winooski, VT, USA) at 570 nm (690 nm for background absorbance).
(§3) An important step in the development of new pharmacologically active compounds is the establishment of their safety profile. An in vitro toxicity evaluation was carried out on the neuroblastoma cell line SH-SY5Y, which is a well-established model in neuroscience. The neuroblastoma SH-SY5Y are human derived cells with relatively homogeneous neuroblast-like structure. The cells express a dopamine-β-hydroxylase and tyrosine hydroxylase enzyme activity, specific types of human proteins and protein isoforms. The possible neurotoxic effects of the potential drug candidates were measured by cell viability assay (MTT-test). The IC50 values were used as a robust parameter for comparison. The test compounds were dissolved in DMSO and serially diluted in cell culture medium to achieve final concentrations ranging from 1 to 500 µM; the culture medium containing DMSO in the corresponding concentration was used as untreated controls. A concentration dependent effect on cell viability was observed after 24 h incubation.

A short description of data set [2]: Fe(II)-induced oxidative damage of lecithin (TBA-RS). The following applies: 90 µmol/L; for sample/control absorbance ratio (% of the control), lecithin peroxidation: lecithin 1 mg/mL, FeCl2 0.1 mmol/L. Here is the method:
The classical method of determining the TBA-reactive substances at 532 nm as described by Asakawa and Matsushita has been used. Two groups of measurement compositions named controls and samples were prepared in phosphate buffer (K2HPO4/KH2PO4, pH 7.4) for each of the used substrates. Both of them contained equivalent concentrations of lecithin (1 mg/mL) or 2-deoxyribose (0.5 mmol/L) and FeCl2 (0.1 mmol/L). In the controls, the tested hydrazones have been omitted and in the samples the effect of the newly designed compounds at the concentrations indicated below the figures has been determined. The obtained samples were incubated at 37 °C for 30 min. The reaction was stopped, and after adding 0.5 mL 2.8% trichloroacetic acid and 0.5 mL of thiobarbituric acid, the samples were heated in boiling water for 20 min. The lecithin containing samples were centrifuged at 3000 rpm for 20 min and the supernatant was aspired out. The results have been presented as a percentage of the control sample, treated only with ferrous iron where we expected maximum oxidative damage under the described conditions.

The test system of data set [3] is SH-SY5Y cells. The data set is described as follows: MTT cytotoxicity on SH-SY5Y cells. Format: cell-based, human. The following applies: MTT test, 24 h incubation; read-out: IC50, in vitro cytotoxicity on SH-SY5Y cells. Here is the method: as §1, §2, §3
Data set [4] has as its target T1, human recombinant MAO-B (hMAO-B) enzyme (Homo sapiens, UniProt P27338).
T1 construct: purchased Invitrogen, USA
T1 sequence (P27338 1-520): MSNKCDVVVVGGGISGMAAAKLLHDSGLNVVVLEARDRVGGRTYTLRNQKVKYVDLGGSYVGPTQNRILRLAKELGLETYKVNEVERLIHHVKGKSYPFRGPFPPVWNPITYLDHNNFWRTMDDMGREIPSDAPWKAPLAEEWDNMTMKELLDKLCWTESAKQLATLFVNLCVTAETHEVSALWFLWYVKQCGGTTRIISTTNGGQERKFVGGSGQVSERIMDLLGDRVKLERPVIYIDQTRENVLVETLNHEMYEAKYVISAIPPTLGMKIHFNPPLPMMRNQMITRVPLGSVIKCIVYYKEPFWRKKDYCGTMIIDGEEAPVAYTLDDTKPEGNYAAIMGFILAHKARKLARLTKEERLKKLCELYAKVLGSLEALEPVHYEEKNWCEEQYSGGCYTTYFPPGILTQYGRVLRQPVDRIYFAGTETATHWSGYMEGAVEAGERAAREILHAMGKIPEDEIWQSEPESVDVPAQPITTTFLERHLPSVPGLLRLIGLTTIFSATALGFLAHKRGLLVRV
In words: hMAO-B activity, Amplex UltraRed fluorometric method. Format: biochemical. The following applies: 1 µM. Here is the method: The effects of the test compounds on human recombinant MAO-B (hMAO-B) enzyme were studied by the Amplex UltraRed reagent (Sigma-Aldrich Chemie GmbH) fluorometric method with small modifications. The working solutions of the compounds, reagents, hMAO-B, and reaction buffers were prepared according to the producer’s instructions. The tyramine hydrochloride was used as a substrate. The reaction mixture contained a stock solution of Amplex Red (10 mM in dimethyl sulfoxide), the reaction buffer (0.05 M sodium phosphate) at pH 7.4, and the storage solution of horseradish peroxidase (10 U/mL). There were pure MAO-B working solutions in the reaction buffer and MAO-B working solution containing hydrogen peroxide as controls. The final concentration of the test compounds in the well was 1 μM. The compounds together with hMAO-B were embedded in a 96-well plate (8 wells for each compound), and then the plate was incubated for 30 min (dark, at 37 °C). Thereafter, the reaction was initiated by 50 μL Mix Solution: Amplex®Red reagent, horseradish peroxidase, and tyramine as an enzyme substrate in the reaction buffer. The fluorescence was measured every 30 min at 0, 30, 60, 90, 120, and 150 min), in dark, while shaking the reaction mixture at constant temperature of 37 °C. The fluorimetric measurements were assessed using a Synergy 2 Microplate Reader.
Monoamine oxidase B catalyzes dopamine metabolism and oxidation leading to the formation of reactive oxygen species and reactive quinones, which provoke dopamine neurotoxicity and neurodegeneration. In the next experiments, the compounds showing the best safety profile and the most promising neuroprotective activity (3d, 3e, 3h, 3i, 3m, 3n, 3p) were evaluated for their potential inhibitory activity on hMAOB. Selegiline and rasagiline as potent MAO-B inhibitors were used as standard compounds for comparison.

The structures appear in SMILES notation.

`O=C(CCn1c(=S)n(CCC(=O)N/N=C/c2ccccc2)c2ccccc21)N/N=C/c1ccccc1` [3a] gave a melting point of 246 to 248 °C. Besides, the 50% inhibitory concentration (IC50) at 24 h in data set [1] turned out to be 103 µM. The “sample/control absorbance ratio (% of the control), lecithin peroxidation” value in data set [2] was 66.52%.
The like results for `O=C(CCn1c(=S)n(CCC(=O)NN=Cc2ccc(O)c(O)c2)c2ccccc21)NN=Cc1ccc(O)c(O)c1` [3j, 3,3′-(2-Thioxo-1H-benzo[d]imidazole-1,3(2H)-diyl)bis(N′-(3,4-dihydroxybenzylidene)propanehydrazide)] were, in that order, 212 to 214 °C, 187 µM and “around 40%”.
For `O=c1c(O)c(-c2ccc(O)c(O)c2)oc2cc(O)cc(O)c12` [Quercetin, reference compound], the “sample/control absorbance ratio (% of the control), lecithin peroxidation” value in data set [2] was “around 25%”.
For the compound `COc1cccc(O)c1C=NNC(=O)CCn1c(=S)n(CCC(=O)NN=Cc2c(O)cccc2OC)c2ccccc21` [3n, 3,3′-(2-Thioxo-1H-benzo[d]imidazole-1,3(2H)-diyl)bis(N′-(2-hydroxy-6-methoxybenzylidene)propanehydrazide)], the melting point lay in the range of 272 to 274 °C. In addition, the IC50 at 24 h in data set [1] is > 250 µM. Further, in data set [3], the IC50 was 269 µM. Besides, in data set [4], the “inhibitory effect on hMAOB activity (in words)” value was “statistically significant MAO-B inhibitory effects”.
Consider `O=C(CCn1c(=S)n(CCC(=O)NN=Cc2cccc(O)c2)c2ccccc21)NN=Cc1cccc(O)c1` [3f, 3,3′-(2-Thioxo-1H-benzo[d]imidazole-1,3(2H)-diyl)bis(N′-(3-hydroxybenzylidene)propanehydrazide)], for which the melting point lay within 223 to 224 °C. In addition, the concentration for half-maximal inhibition (IC50) at 24 h in data set [1] is 77.7 µM.
The like results for `COc1cc(C=NNC(=O)CCn2c(=S)n(CCC(=O)NN=Cc3ccc(O)c(OC)c3)c3ccccc32)ccc1O` [3b, 3,3′-(2-Thioxo-1H-benzo[d]imidazole-1,3(2H)-diyl)bis(N′-(4-hydroxy-3-methoxybenzylidene)propanehydrazide)] were, in that order, 229 to 231 °C and 101 µM.
In the case of `COc1cc(/C=N/NC(=O)CCn2c(=S)n(CCC(=O)N/N=C/c3cc(O)c(O)c(OC)c3)c3ccccc32)cc(O)c1O` [3q, 3,3′-(2-Thioxo-1H-benzo[d]imidazole-1,3(2H)-diyl)bis(N′-(3,4-hydroxy-5-methoxybenzylidene)propanehydrazide)], the melting point was 174 to 176 °C. For the same compound, the IC50 at 24 h in data set [1] was 77.7 µM. Further, the “sample/control absorbance ratio (% of the control), lecithin peroxidation” value in data set [2] is on record as “around 40%”.
Turning to `COc1ccc(C=NNC(=O)CCn2c(=S)n(CCC(=O)NN=Cc3ccc(OC)c(OC)c3)c3ccccc32)cc1OC` [3c, 3,3′-(2-Thioxo-1H-benzo[d]imidazole-1,3(2H)-diyl)bis(N′-(3,4 dimethoxybenzylidene)propanehydrazide)], the melting point fell in the range of 239 to 241 °C. Moreover, the IC50 at 24 h in data set [1] came out at 112 µM. Also, in data set [2], the “lecithin peroxidation effect compared with 3a (in words)” value was “statistically identical effect to 3a”.
For `Cc1c(C)c2c(c(C)c1O)CCC(C)(C(=O)O)O2` (stereo not drawn) [Trolox, reference compound], the “sample/control absorbance ratio (% of the control), lecithin peroxidation” value in data set [2] is given as “around 25%”.
The compound `COc1cccc(C=NNC(=O)CCn2c(=S)n(CCC(=O)NN=Cc3cccc(OC)c3O)c3ccccc32)c1O` [3l, 3,3′-(2-Thioxo-1H-benzo[d]imidazole-1,3(2H)-diyl)bis(N′-(2-hydroxy-3-methoxybenzylidene)propanehydrazide)] displayed a melting point of 268 to 270 °C. For the same compound, the IC50 at 24 h in data set [1] was > 200 µM. In data set [3], the IC50 was 200 µM.
In the case of `COc1ccc(C=NNC(=O)CCn2c(=S)n(CCC(=O)NN=Cc3ccc(OC)c(O)c3)c3ccccc32)cc1O` [3o, 3,3′-(2-Thioxo-1H-benzo[d]imidazole-1,3(2H)-diyl)bis(N′-(3-hydroxy-4-methoxybenzylidene)propanehydrazide)], the melting point was in the range of 255 to 257 °C. Moreover, the IC50 at 24 h in data set [1] is 73.6 µM.
For the compound `COc1cc(O)ccc1C=NNC(=O)CCn1c(=S)n(CCC(=O)NN=Cc2ccc(O)cc2OC)c2ccccc21` [3p, 3,3′-(2-Thioxo-1H-benzo[d]imidazole-1,3(2H)-diyl)bis(N′-(4-hydroxy-2-methoxybenzylidene)propanehydrazide)], the melting point is 205 to 207 °C. Further, the IC50 at 24 h in data set [1] is > 250 µM. The IC50 in data set [3] is 254 µM. Further, in data set [4], the “inhibitory effect on hMAOB activity (in words)” value is reported as “statistically significant MAO-B inhibitory effects”.
In turn, `O=C(CCn1c(=S)n(CCC(=O)NN=Cc2ccc(O)c(O)c2O)c2ccccc21)NN=Cc1ccc(O)c(O)c1O` [3k, 3,3′-(2-Thioxo-1H-benzo[d]imidazole-1,3(2H)-diyl)bis(N′-(2,3,4-trihydroxybenzylidene)propanehydrazide)] showed a melting point of 279 to 280 °C. Moreover, the IC50 at 24 h in data set [1] was 65.3 µM. In data set [2], the “lecithin peroxidation effect compared with 3a (in words)” value was “statistically identical effect to 3a”.
For the compound `O=C(CCn1c(=S)n(CCC(=O)NN=Cc2ccc(O)cc2)c2ccccc21)NN=Cc1ccc(O)cc1` [3g, 3,3′-(2-Thioxo-1H-benzo[d]imidazole-1,3(2H)-diyl)bis(N′-(4-hydroxybenzylidene)propanehydrazide)], the melting point fell in the range of 281 to 283 °C. For the same compound, in data set [1], the IC50 at 24 h is 77.8 µM.
